Source: patent US9012470B2 (Dart NeuroScience (Cayman) Ltd., priority 2010, dated 2015)
Where a name gives a salt, the structure may show the parent alone.

Assays:
[1] = test system: benzodiazepine site of GABAA; assay: Binding assay, benzodiazepine site of GABAA (binding assay 1: rat brain, (3H)-flunitrazepam; binding assay 2: bovine hippocampal membranes, [3H]-RY80); conditions: radioligand binding; for % Inhibition at 10 μM: 10 μM test compound; for % Inhibition at 0.1 μM: 0.1 μM test compound
Procedure: The ability of a compound disclosed herein to act as ligand to the benzodiazepine site of GABAA can be determined using pharmacological models which are well known in the art using the following assay.
Binding assay 1: Whole brain (except cerebellum) of male Wistar derived rats weighing 175±25 g were used to prepare GABAA central benzodiazepine receptor in Na—K phosphate buffer pH 7.4. A 5 mg aliquot was incubated with 1 nM (^3H)-flunitrazepam for 60 minutes at 25° C. Experiments were performed in the presence or absence of 30 μM of GABA. Non-specific binding was estimated in the presence of 10 μM of diazepam. Membranes were filtered and washed, the filters were then counted to determine (^3H)-flunitrazepam specifically bound. Test compounds were tested in duplicate according to the required concentrations (Damm, H. W., et al. (1978) Res. Comm. Chem. Pathol. Pharmacol. 22: 597-560 incorporated herein in its entirety; Speth, R. C., et al. (1979) Life Sci. 24: 351-357 incorporated herein in its entirety).
Receptor Source: Bovine hippocampal membranes
Radioligand: [3H]-RY80 (40-80 Ci/mmol)
Final ligand concentration—[0.8 nM]
Non-specific Determinant: L-655,708—[0.5 μM]
Binding assay 2 followed procedures based on Li and Szabo (Li M., Szabo A., Rosenberg H. Evaluation of native GABAA receptors containing an α5 subunit. Eur. J. Pharmacol. 413: 63-72 (2001)). Incubation Conditions: Reactions are carried out in 50 mM Tris-Citrate (pH 7.8) containing 200 mM NaCl at 0-4° C. for 60 minutes. The reaction is terminated by rapid vacuum filtration onto glass fiber filters. Radioactivity trapped onto the filters is determined and compared to control values in order to ascertain any interactions of test compound with the benzodiazepine (central) binding site.

GABAA receptors = assay: Electrophysiology assay, two-electrode voltage clamp in Xenopus oocytes expressing GABAA receptors; format: cell-based; conditions: GABA EC10, screening concentration of 10 μM, subunit combination not stated
Procedure: mRNA was prepared from lyophilized plasmid pellets containing cDNA inserts encoding the specific GABAA receptor subunit. cDNAs encoding the α2, α3, and γ3 subunits were subcloned into pBluescript, SK^−. cDNAs encoding the α1 and α5 subunits were subcloned into prC while cDNA encoding the β2 subunit was subcloned into pcDNA1. The cDNA construct encoding the γ2s subunit is in the pGH19 expression construct. Overnight cultures of transformed DH5a bacterial cells were performed to grow sufficient quantities for maxiprep isolation of the plasmid cDNA. The resulting plasmid cDNA was linearized by digestion with an appropriate restriction enzyme that cleaves distal to the cDNA insert (XbaI for α1,2, β2, and γ3 or NotI for α3,5 and γ2, respectively). Following digestion, plasmid cDNA was treated with proteinase K and extracted with phenol/chloroform/isoamyl alcohol, followed by ethanol precipitation. cDNA quality was assessed by agarose-gel electrophoresis (1.5% agarose gel). Samples were stored at −20° C. until use. In vitro transcription was performed with T7 RNA polymerase. mRNA was then stored at −80° C. until use. Plasmids were linearized with appropriate restriction enzymes before in vitro transcription using the Message Machine kit (Ambion, Austin, Tex.).
GABAA Receptor Expression in Xenopus oocytes.
GABAA receptor expression in Xenopus oocytes: Following 45 min of 0.15% Tricaine anesthesia, an ovarian section containing the follicular oocytes was removed from the frog through a lateral abdominal incision. Oocytes were immediately placed in a calcium-free solution (NaCl 96 mM, MgCl2 1 mM, KCl 2 mM, Hepes 50 mM, pyruvate 2.5 mM, gentamycin 100 μg/mL, penicillin-streptomycin 50 U/mL, pH 7.4). Following 1.5-2 hour incubation in 0.2% collagenase (type II, Sigma Chemical Co., St. Louis, Mo.) at room temperature, individual Dumont stage V and VI oocytes were transferred to an incubator and maintained overnight in Barth's solution (NaCl 84 mM, NaHCO3 2.4 mM, MgSO4 0.82 mM, KCl 1 mM, Ca(NO3)2 0.33 mM, CaCl2 0.41 mM, Tris/HCl 7.5 mM, pyruvate 2.5 mM, gentamycin 50 μg/mL, penicillin-streptomycin, 100 units/mL, pH 7.4) at 18-20° C. and used for experiments 1-5 days post-injection. Oocytes were injected solution using an electronic microinjector (Drummond, Broomall, Pa.) with 50 nL of RNA containing 0.3-0.5 ng of each subunit RNA in a 1:1:1 ratio. The injected oocytes were used for experiments after 1-5 days of incubation in Barth's solution at 18-20° C.
Measurements of ion currents from oocytes expressing GABAA receptors were performed using a Warner two-electrode voltage-clamp amplifier (Warner Instruments, Inc., Foster City, Calif.) (Park-Chung, M., et al. (1999) Brain Res. 830: 72-87 incorporated herein in its entirety). Microelectrodes were fabricated from borosilicate glass capillaries with a programmed pipette puller (Sutter Instrument Co., Calif.). Microelectrode resistance was 1-3 MΩ when filled with 3 M KCl. The oocyte recording chamber was continuously perfused with Ringer solution. Oocytes were clamped at a holding potential of −70 mV during data acquisition. The membrane current was filtered at 10 Hz and sampled at 100 Hz. Compounds were applied by a gravity-driven external perfusion system. The working volume of the recording chamber was 30 μL and the rate of the perfusion was approximately 50 μL/sec. Compound application was 10-20 sec followed by a 90 sec wash. Data acquisition and external perfusion was computer controlled by custom-developed software. All experiments were performed at room temperature (22-24° C.). Dose-response data from each oocyte were fitted to the Hill equation by non-linear regression using the equation: IGABA=Emax/(1+(EC50/c)^n^H)
Emax is the maximum response, EC50 is the concentration producing 50% of the maximal response, nH is the Hill coefficient and c is the concentration of agonist. […]

Compound | % Inhibition at 10 μM [1] | % Inhibition at 0.1 μM [1] | EP Modulation (GABAA receptors)
CCNC(=O)n1nc2[nH]cc3c(=O)n(-c4ccccc4)nc-3c2c1C [Compound 6av, N-ethyl-8-methyl-3-oxo-2-phenyl-2,3-dihydrodipyrazolo[3,4-b:3′,4′-d]pyridine-7(5H)-carboxamide] | A (A indicates % inhibition >80%) | B (B indicates % inhibition <80% and >20%) | E (E indicates negative modulation <20%)
CCNC(=O)n1ncc2c3nn(-c4ccc(Cl)cn4)c(=O)c-3c[nH]c21 [Compound 6ay, 2-(5-chloropyridin-2-yl)-N-ethyl-3-oxo-2,3-dihydrodipyrazolo[3,4-b:3′,4′-d]pyridine-6(5H)-carboxamide] | A (A indicates % inhibition >80%) | – | D (D indicates negative modulation >20%)
CNC(=O)n1ncc2c3nn(-c4ccccc4)c(=O)c-3c[nH]c21 [Compound 6c, N-methyl-3-oxo-2-phenyl-2,3-dihydrodipyrazolo[3,4-b:3′,4′-d]pyridine-6(5H)-carboxamide] | A (A indicates % inhibition >80%) | B (B indicates % inhibition <80% and >20%) | D (D indicates negative modulation >20%)
CCCCNC(=O)n1ncc2c3nn(-c4ccccc4)c(=O)c-3c[nH]c21 [Compound 6f, N-butyl-3-oxo-2-phenyl-2,3-dihydrodipyrazolo[3,4-b:3′,4′-d]pyridine-6(5H)-carboxamide.TFA] | A (A indicates % inhibition >80%) | – | D (D indicates negative modulation >20%)
O=C(Nc1ccccc1)n1ncc2c3nn(-c4ccccc4)c(=O)c-3c[nH]c21 [Compound 6h, 3-oxo-N,2-diphenyl-2,3-dihydrodipyrazolo[3,4-b:3′,4′-d]pyridine-6(5H)-carboxamide] | B (B indicates % inhibition <80% and >20%) | C (C indicates % inhibition <20%) | D (D indicates negative modulation >20%)
O=C(NC1CC1)n1ncc2c3nn(-c4ccccc4)c(=O)c-3c[nH]c21 [Compound 6j, N-cyclopropyl-3-oxo-2-phenyl-2,3-dihydrodipyrazolo[3,4-b:3′,4′-d]pyridine-6(5H)-carboxamide] | A (A indicates % inhibition >80%) | C (C indicates % inhibition <20%) | E (E indicates negative modulation <20%)
CCNC(=O)n1nc(C)c2c3nn(-c4ccccc4)c(=O)c-3c[nH]c21 [Compound 6l, N-ethyl-8-methyl-3-oxo-2-phenyl-2,3-dihydrodipyrazolo[3,4-b:3′,4′-d]pyridine-6(5H)-carboxamide] | A (A indicates % inhibition >80%) | A (A indicates % inhibition >80%) | D (D indicates negative modulation >20%)
CCNC(=O)n1ncc2c3nn(-c4ccccn4)c(=O)c-3c[nH]c21 [Compound 6m, N-ethyl-3-oxo-2-(pyridin-2-yl)-2,3-dihydrodipyrazolo[3,4-b:3′,4′-d]pyridine-6(5H)-carboxamide] | A (A indicates % inhibition >80%) | C (C indicates % inhibition <20%) | D (D indicates negative modulation >20%)
CCNC(=O)n1ncc2c3nn(-c4ccc(Cl)cc4)c(=O)c-3c[nH]c21 [Compound 6o] | A (A indicates % inhibition >80%) | B (B indicates % inhibition <80% and >20%) | E (E indicates negative modulation <20%)
CCNC(=O)n1ncc2c3nn(-c4ccsc4)c(=O)c-3c[nH]c21 [Compound 6u, N-ethyl-3-oxo-2-(thiophen-3-yl)-2,3-dihydrodipyrazolo[3,4-b:3′,4′-d]pyridine-6(5H)-carboxamide] | A (A indicates % inhibition >80%) | – | D (D indicates negative modulation >20%)
CCNC(=O)n1ncc2c3nn(-c4ccc(Br)cc4)c(=O)c-3c[nH]c21 [Compound 6w, 2-(4-bromophenyl)-N-ethyl-3-oxo-2,3-dihydrodipyrazolo[3,4-b:3′,4′-d]pyridine-6(5H)-carboxamide.TFA] | A (A indicates % inhibition >80%) | – | E (E indicates negative modulation <20%)
CCNC(=O)n1ncc2c3nn(-c4ccc(C(C)C)cc4)c(=O)c-3c[nH]c21 [Compound 6z, N-ethyl-2-(4-isopropylphenyl)-3-oxo-2,3-dihydrodipyrazolo[3,4-b:3′,4′-d]pyridine-6(5H)-carboxamide. TFA] | A (A indicates % inhibition >80%) | – | E (E indicates negative modulation <20%)

More lines, main results first:

% Inhibition at 10 μM [1] | % Inhibition at 0.1 μM [1] | Compound | EP Modulation (GABAA receptors)
A (A indicates % inhibition >80%) | – | CCNC(=S)n1ncc2c3nn(-c4ccc(Cl)cc4)c(=O)c-3c[nH]c21 [Compound 6as, 2-(4-chlorophenyl)-N-ethyl-3-oxo-2,3-dihydrodipyrazolo[3,4-b:3′,4′-d]pyridine-6(5H)-carbothioamide] | D (D indicates negative modulation >20%)
A (A indicates % inhibition >80%) | A (A indicates % inhibition >80%) | CCNC(=O)n1ncc2c3nn(-c4ccccc4)c(=O)c-3c[nH]c21 [Compound 6b, N-ethyl-3-oxo-2-phenyl-2,3-dihydrodipyrazolo[3,4-b:3′,4′-d]pyridine-6(5H)-carboxamide] | D (D indicates negative modulation >20%)
A (A indicates % inhibition >80%) | – | CCCNC(=O)n1ncc2c3nn(-c4ccccc4)c(=O)c-3c[nH]c21 [Compound 6d, 3-oxo-2-phenyl-N-propyl-2,3-dihydrodipyrazolo[3,4-b:3′,4′-d]pyridine-6(5H)-carboxamide] | E (E indicates negative modulation <20%)
C (C indicates % inhibition <20%) | C (C indicates % inhibition <20%) | CC(C)NC(=O)n1ncc2c3nn(-c4ccccn4)c(=O)c-3c[nH]c21 [Compound 6n, N-isopropyl-3-oxo-2-(pyridin-2-yl)-2,3-dihydrodipyrazolo[3,4-b:3′,4′-d]pyridine-6(5H)-carboxamide] | E (E indicates negative modulation <20%)
